The source of these data is paper PMC6837752, “Effectiveness of four types of neuraminidase inhibitors approved in Japan for the treatment of influenza” (PLoS ONE, 2019).

The subject of test [1] is influenza A/H1N1pdm09, A/H3N2, and B viruses. Put plainly: Fever duration after NAI treatment in outpatients with laboratory confirmed influenza (observational study). The class given is in vivo, human. Particulars: for HR (Cox proportional hazards model of fever duration): multivariable analysis, compared to oseltamivir (reference 1.00); for Mean fever duration after NAI treatment: univariate analysis, all patients aged <20 years, all types/subtypes, from start of treatment to <37.5 °C.

Test [2] relates to influenza B. Particulars: patients aged 5 to 18 years, cited from earlier work.
Test [3] deals with oseltamivir-sensitive influenza A/H1N1pdm09 virus. The class given is in vivo. Particulars: oseltamivir-treated patients 0–5 years, oseltamivir-sensitive viruses, n = 111.

“And” between values parts separate entries of the source, which are not always exact repeats. Identical values can stand only once.

On to `[H]/N=C(\N)N[C@H]1C=C(C(=O)O)O[C@@H]([C@H](OC)[C@H](O)CO)[C@@H]1NC(C)=O` [Laninamivir, laninamivir], for which the Average fever duration is 75.8 h in test [1] (age group 0 to 5 years), 42.9 h in test [1] (age group 6 to 9 years) and 36.6 h in test [1] (age group 10 to 19 years). In addition, in test [1], the “HR (Cox proportional hazards model of fever duration)” value (from here on “HR”) is given as 0.78. Further, the “Mean fever duration after NAI treatment” value in test [1] came out at 39.8 h. Further, the “Median fever duration longer than for peramivir” value in test [2] (P <0.01) is 1 days. Moreover, in test [2], the “Median fever duration after treatment” value is given as 3 days.

Turning to `CCOC(=O)C1=C[C@@H](OC(CC)CC)[C@H](NC(C)=O)[C@@H](N)C1` [Oseltamivir, oseltamivir], the Average fever duration is 42.2 h in test [1] (age group 0 to 5 years); 37.3 h in test [1] (age group 6 to 9 years); 29.8 h in test [1] (age group 10 to 19 years); 40 h and 40 ± 27 h in test [3]. For the same compound, the “HR” value in test [1] is on record as 1.00. For the same compound, in test [1], the “Mean fever duration after NAI treatment” value turned out to be 40.1 h.

Consider `CC(=O)N[C@H]1[C@H]([C@H](O)[C@H](O)CO)OC(C(=O)O)=C[C@@H]1N=C(N)N` [Zanamivir, zanamivir], for which the Average fever duration in test [1] (age group 0 to 5 years) turned out to be 45.4 h; in test [1] (age group 6 to 9 years), 42.3 h; in test [1] (age group 10 to 19 years) it was 35.4 h. Besides, the “HR” value in test [1] turned out to be 0.87. In test [1], the “Mean fever duration after NAI treatment” value amounted to 38.5 h.

For peramivir, the Average fever duration was 46.3 h in test [1] (age group 0 to 5 years), 31.3 h in test [1] (age group 6 to 9 years) and 32.3 h in test [1] (age group 10 to 19 years). In test [1], the “HR” value is given as 1.05. In addition, in test [1], the “Mean fever duration after NAI treatment” value stood at 38.3 h.
